PMC7862291, “Full-length in meso structure and mechanism of rat kynurenine 3-monooxygenase inhibition” (Communications Biology, 2021)

What was measured:
hKMO = target: T1, hKMO (Homo sapiens, UniProt O15229); assay: Human KMO enzyme (cell-free) assay, NADPH consumption by absorbance; type: biochemical
T1 construct: purchased Origene
In short: (§1)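 Recombinant human KMO or purified full-length rat KMO, pre-incubated 5 min with compound in HEPES buffer pH ~7.9 with MgCl2, EGTA, DTT, Tween20. Substrate mix of 2.4 mM kynurenine and 0.6 mM NADPH (solution concentrations) added; 90 min at 30 °C. Stopped with maleimide, then WST-9/1-methoxy-PMS colour read-out.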

Rat KMO = target: T2, Rat KMO (Rattus norvegicus, UniProt O88867); assay: Rat KMO enzyme (cell-free) assay, NADPH consumption by absorbance; type: biochemical
T2 construct: The GST-tagged full-length KMO (1-478) baculovirus vector contained a thrombin cleavage site; GST (thrombin cleavage site between GST and KMO) (N, cleaved yes); made in house; host or cells: Spodoptera frugiperda (Sf9), baculovirus
In short: as §1

[1] = target: T3, HEK293 cells stably expressing human KMO (Homo sapiens, UniProt O15229); assay: Cell-based human KMO inhibition assay (LC/MS of 3-hydroxykynurenine)
T3 construct: expressed in transfected cells
In short: (§2)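 HEK293 lines stably expressing human or rat KMO, pre-incubated ~30 min at 37 °C with compound (final 0–30 μM, 0.3% DMSO) in HBSS/20 mM HEPES. Then 2 h at 37 °C with 0.2 mM kynurenine (solution concentration). 3-Hydroxykynurenine in cell extracts quantified by LC-MS/MS, positive ESI.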

[2] = target: T4, HEK293 cells stably expressing rat KMO (Rattus norvegicus, UniProt O88867); assay: Cell-based rat KMO inhibition assay (LC/MS of 3-hydroxykynurenine)
T4 construct: expressed in transfected cells
In short: as §2

T1 sequence (O15229 whole entry): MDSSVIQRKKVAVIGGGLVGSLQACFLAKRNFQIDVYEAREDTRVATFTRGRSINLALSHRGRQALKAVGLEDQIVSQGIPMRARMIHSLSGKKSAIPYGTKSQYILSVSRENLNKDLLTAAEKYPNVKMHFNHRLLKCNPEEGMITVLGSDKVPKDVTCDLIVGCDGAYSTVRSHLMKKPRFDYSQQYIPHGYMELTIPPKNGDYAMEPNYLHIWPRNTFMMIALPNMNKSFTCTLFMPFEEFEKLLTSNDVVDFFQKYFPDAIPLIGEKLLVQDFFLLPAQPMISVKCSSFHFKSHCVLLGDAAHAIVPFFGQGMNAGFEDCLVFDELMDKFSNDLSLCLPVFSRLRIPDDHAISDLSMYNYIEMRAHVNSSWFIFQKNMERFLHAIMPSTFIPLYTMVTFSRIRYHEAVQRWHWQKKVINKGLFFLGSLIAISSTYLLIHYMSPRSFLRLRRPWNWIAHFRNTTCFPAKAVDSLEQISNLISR
T3 sequence (O15229 whole entry): as above
T4 sequence (O88867 whole entry): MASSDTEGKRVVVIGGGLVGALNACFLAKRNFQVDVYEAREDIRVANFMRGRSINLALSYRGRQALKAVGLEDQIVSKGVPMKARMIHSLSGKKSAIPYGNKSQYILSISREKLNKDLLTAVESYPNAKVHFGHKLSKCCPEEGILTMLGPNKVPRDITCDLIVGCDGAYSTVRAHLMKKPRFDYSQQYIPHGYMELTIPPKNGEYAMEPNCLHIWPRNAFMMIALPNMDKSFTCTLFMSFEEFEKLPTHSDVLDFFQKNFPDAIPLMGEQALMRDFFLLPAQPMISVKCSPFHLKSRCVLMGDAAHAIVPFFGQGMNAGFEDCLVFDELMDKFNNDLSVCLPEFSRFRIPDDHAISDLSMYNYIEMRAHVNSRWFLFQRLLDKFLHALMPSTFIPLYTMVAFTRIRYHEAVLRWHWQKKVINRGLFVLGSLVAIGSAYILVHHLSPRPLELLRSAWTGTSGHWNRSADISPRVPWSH
T2 sequence (O88867 whole entry): as above

Compound: Cc1cnn(-c2ccc(OCc3ccccc3)c(C(=O)O)c2)c1-c1ccc(Cl)c(F)c1 [Compound 3]
- IC50 (hKMO; cell-free enzyme assay, high kynurenine, read-out: Human KMO IC50): 3.8 nM
- inhibition rate, Hs-KMO cell-free assay (Figure 1A source data) (hKMO; conc 0.0003 μM, duplicates): 2.492%
- inhibition at 0.0003 µM (hKMO; conc 0.0003 μM, duplicates, read-out: inhibition rate, Hs-KMO cell-free assay (Figure 1A source data)): 4.34%
- inhibition rate, Hs-KMO cell-free assay (Figure 1A source data) (hKMO; conc 0.001 μM, duplicates): 10.698%
- inhibition at 0.001 µM (hKMO; conc 0.001 μM, duplicates, read-out: inhibition rate, Hs-KMO cell-free assay (Figure 1A source data)): 11%
- inhibition rate, Hs-KMO cell-free assay (Figure 1A source data) (hKMO; conc 0.003 μM, duplicates): 34.671%
- inhibition at 0.003 µM (hKMO; conc 0.003 μM, duplicates, read-out: inhibition rate, Hs-KMO cell-free assay (Figure 1A source data)): 36%
- inhibition rate, Hs-KMO cell-free assay (Figure 1A source data) (hKMO; conc 0.01 μM, duplicates): 91.745%
- inhibition at 0.01 µM (hKMO; conc 0.01 μM, duplicates, read-out: inhibition rate, Hs-KMO cell-free assay (Figure 1A source data)): 91.2%
- inhibition rate, Hs-KMO cell-free assay (Figure 1A source data) (hKMO; conc 0.03 μM, duplicates): 101.827%
- inhibition at 0.03 µM (hKMO; conc 0.03 μM, duplicates, read-out: inhibition rate, Hs-KMO cell-free assay (Figure 1A source data)): 102%
- inhibition rate, Hs-KMO cell-free assay (Figure 1A source data) (hKMO; conc 0.1 μM, duplicates): 97.991%
- inhibition at 0.1 µM (hKMO; conc 0.1 μM, duplicates, read-out: inhibition rate, Hs-KMO cell-free assay (Figure 1A source data)): 98.8%
- inhibition rate, Hs-KMO cell-free assay (Figure 1A source data) (hKMO; conc 0.3 μM, duplicates): 101.967%
- inhibition at 0.3 µM (hKMO; conc 0.3 μM, duplicates, read-out: inhibition rate, Hs-KMO cell-free assay (Figure 1A source data)): 103%
- inhibition rate, Hs-KMO cell-free assay (Figure 1A source data) (hKMO; conc 1 μM, duplicates): 95.974%
- inhibition at 1 µM (hKMO; conc 1 μM, duplicates, read-out: inhibition rate, Hs-KMO cell-free assay (Figure 1A source data)): 103%
- IC50 (Rat KMO; cell-free enzyme assay, high kynurenine): 9 nM
- inhibition rate, Rat-KMO cell-free assay (Figure 1B source data) (Rat KMO; conc 0.0003 μM, duplicates): 0.623%
- inhibition at 0.0003 µM (Rat KMO; conc 0.0003 μM, duplicates, read-out: inhibition rate, Rat-KMO cell-free assay (Figure 1B source data)): 0.676%
- inhibition rate, Rat-KMO cell-free assay (Figure 1B source data) (Rat KMO; conc 0.001 μM, duplicates): 5.077%
- inhibition at 0.001 µM (Rat KMO; conc 0.001 μM, duplicates, read-out: inhibition rate, Rat-KMO cell-free assay (Figure 1B source data)): 6.43%
- inhibition rate, Rat-KMO cell-free assay (Figure 1B source data) (Rat KMO; conc 0.003 μM, duplicates): 23.289%
- inhibition at 0.003 µM (Rat KMO; conc 0.003 μM, duplicates, read-out: inhibition rate, Rat-KMO cell-free assay (Figure 1B source data)): 23.8%
- inhibition rate, Rat-KMO cell-free assay (Figure 1B source data) (Rat KMO; conc 0.01 μM, duplicates): 55.764%
- inhibition at 0.01 µM (Rat KMO; conc 0.01 μM, duplicates, read-out: inhibition rate, Rat-KMO cell-free assay (Figure 1B source data)): 56.6%
- inhibition rate, Rat-KMO cell-free assay (Figure 1B source data) (Rat KMO; conc 0.03 μM, duplicates): 81.294%
- inhibition at 0.03 µM (Rat KMO; conc 0.03 μM, duplicates, read-out: inhibition rate, Rat-KMO cell-free assay (Figure 1B source data)): 81.3%
- inhibition rate, Rat-KMO cell-free assay (Figure 1B source data) (Rat KMO; conc 0.1 μM, duplicates): 84.395%
- inhibition at 0.1 µM (Rat KMO; conc 0.1 μM, duplicates, read-out: inhibition rate, Rat-KMO cell-free assay (Figure 1B source data)): 83.1%
- inhibition rate, Rat-KMO cell-free assay (Figure 1B source data) (Rat KMO; conc 0.3 μM, duplicates): 91.102%
- inhibition at 0.3 µM (Rat KMO; conc 0.3 μM, duplicates, read-out: inhibition rate, Rat-KMO cell-free assay (Figure 1B source data)): 92.2%
- inhibition rate, Rat-KMO cell-free assay (Figure 1B source data) (Rat KMO; conc 1 μM, duplicates): 84.342%
- inhibition at 1 µM (Rat KMO; conc 1 μM, duplicates, read-out: inhibition rate, Rat-KMO cell-free assay (Figure 1B source data)): 88.8%
- inhibition at 0.0003 µM ([1]; HEK293, conc 0.0003 μM, duplicates, read-out: inhibition rate, Hs-KMO cellular assay (Figure 1C source data)): 6.79%
- inhibition at 0.001 µM ([1]; HEK293, conc 0.001 μM, duplicates, read-out: inhibition rate, Hs-KMO cellular assay (Figure 1C source data)): 11%
- inhibition at 0.003 µM ([1]; HEK293, conc 0.003 μM, duplicates, read-out: inhibition rate, Hs-KMO cellular assay (Figure 1C source data)): 12.3%
- inhibition at 0.01 µM ([1]; HEK293, conc 0.01 μM, duplicates, read-out: inhibition rate, Hs-KMO cellular assay (Figure 1C source data)): 32.5%
- inhibition at 0.03 µM ([1]; HEK293, conc 0.03 μM, duplicates, read-out: inhibition rate, Hs-KMO cellular assay (Figure 1C source data)): 100%
- inhibition at 0.1 µM ([1]; HEK293, conc 0.1 μM, duplicates, read-out: inhibition rate, Hs-KMO cellular assay (Figure 1C source data)): 104%
- inhibition at 0.3 µM ([1]; HEK293, conc 0.3 μM, duplicates, read-out: inhibition rate, Hs-KMO cellular assay (Figure 1C source data)): 105%
- IC50 ([1]; HEK293 cells expressing human KMO, LC/MS, read-out: Human cell-based assay IC50): 12 nM
- inhibition rate, Hs-KMO cellular assay (Figure 1C source data) ([1]; conc 0.0003 μM, duplicates): 4.270%
- inhibition rate, Hs-KMO cellular assay (Figure 1C source data) ([1]; conc 0.001 μM, duplicates): 10.835%
- inhibition rate, Hs-KMO cellular assay (Figure 1C source data) ([1]; conc 0.003 μM, duplicates): 13.039%
- inhibition rate, Hs-KMO cellular assay (Figure 1C source data) ([1]; conc 0.01 μM, duplicates): 26.636%
- inhibition rate, Hs-KMO cellular assay (Figure 1C source data) ([1]; conc 0.03 μM, duplicates): 98.487%
- inhibition rate, Hs-KMO cellular assay (Figure 1C source data) ([1]; conc 0.1 μM, duplicates): 104.397%
- inhibition at 0.3 µM ([2]; HEK293, conc 0.3 μM, duplicates, read-out: inhibition rate, Rat-KMO cellular assay (Figure 1D source data)): 62%
- inhibition at 1 µM ([2]; HEK293, conc 1 μM, duplicates, read-out: inhibition rate, Rat-KMO cellular assay (Figure 1D source data)): 91.7%
- inhibition at 3 µM ([2]; HEK293, conc 3 μM, duplicates, read-out: inhibition rate, Rat-KMO cellular assay (Figure 1D source data)): 97.7%
- inhibition at 10 µM ([2]; HEK293, conc 10 μM, duplicates, read-out: inhibition rate, Rat-KMO cellular assay (Figure 1D source data)): 100%
- inhibition at 30 µM ([2]; HEK293, conc 30 μM, duplicates, read-out: inhibition rate, Rat-KMO cellular assay (Figure 1D source data)): 100%
- IC50 ([2]; HEK293 cells expressing rat KMO, LC/MS): 240 nM
- inhibition rate, Rat-KMO cellular assay (Figure 1D source data) ([2]; conc 0.3 μM, duplicates): 48.933%
- inhibition rate, Rat-KMO cellular assay (Figure 1D source data) ([2]; conc 1 μM, duplicates): 83.933%
- inhibition rate, Rat-KMO cellular assay (Figure 1D source data) ([2]; conc 3 μM, duplicates): 95.840%
- inhibition rate, Rat-KMO cellular assay (Figure 1D source data) ([2]; conc 10 μM, duplicates): 99.692%
- inhibition rate, Rat-KMO cellular assay (Figure 1D source data) ([2]; conc 30 μM, duplicates): 100.882%
